Results reported in patent US11612606B2, “8-aminoisoquinoline compounds and uses thereof” (priority 2018, dated 2023).
Like-named read-outs stand apart in the source and are kept apart here.

Assays:
[1] = test system: phosphorylation of SLP-76 (S376) by HPK-1 in human Jurkat cells; assay: pSLP76 assay (sandwich ELISA, anti-CD3 stimulated Jurkat cells); type: cell-based; details: Jurkat cells, anti-CD3 stimulation, read-out: pSLP76 IC50
Method: Phospho-SLP76 (S376) is detected by sandwich ELISA using an anti-pSLP76(S376) capture antibody and a biotinylated anti-SLP76 detection antibody.
Incubate Jurkat cells with varying concentrations of test compounds for 30 minutes in a humidified incubator at 37° C. and 5% CO2. Add anti-CD3 DynaBeads at a 4:1 bead:cell ratio. Stimulate cells in a humidified incubator at 37° C. and 5% CO2 for 10 minutes. Add cold lysis buffer and incubate on a shaker at 4° C. for 30 minutes. Transfer cell lysates to a pre-blocked ELISA plate coated with capture antibody. Incubate at room temperature shaking for 2 hours. Wash ELISA plate 5× with wash buffer and add 25 μl of biotinylated detection antibody at a final concentration of 0.5 μg/ml. Incubate at room temperature shaking for 1 hour. Wash ELISA plate 5× with wash buffer and add 25 μl of streptavidin enzyme conjugate at a final dilution of 1:8000. Incubate at room temperature shaking for 20 minutes. Wash ELISA plate 5× with wash buffer and add 25 μl of TMB substrate solution. Incubate at room temperature in the dark shaking for 20 minutes. Add 25 μl of STOP solution and read on SoftMax Pro for absorbance at 450 nm.
Exemplary compounds of Formula (I) were tested in pSLP76 assays.

gMDCKI cell line = assay: Permeability assay in gMDCKI cells; type: in vitro ADME, canine; details: apical-to-basolateral, 10 μM, 2-hour incubation
Method: (§1) Cell permeability of compounds of interest was assessed in the gMDCKI cell line, which is a modified MDCKI (Madin-Darby canine kidney) originally acquired from American Type Culture Collection (Manassa, Va.) and generated at Genentech. […] Test article was tested at 10 μM in the apical-to-basolateral (A-B) and basolateral-to-apical (B-A) directions. Test compound was dissolved in transport buffer consisting of Hank's balanced salt solution and […] (Invitrogen Corporation, Grand Island, N.Y.). Transepithelial electrical resistance (TEER) and lucifer yellow (LY) permeability were used to monitor monolayer integrity at the beginning and the end of the experiments, respectively. Test articles were analyzed by LC-MS/MS.
(§2) The efflux ratio (ER) is calculated as (Papp, B−A/Papp, A−B).
(§3) Cell permeability were assessed for exemplary compounds of Formula (I).

[2] = Pharmacokinetic study in rat; type: in vivo, Sprague Dawley rat; details: 10% DMSO/60% PEG400/30% Water, Solution; for bioavailability: male, Sprague Dawley, plasma
Method: Pharmacokinetic Study in Rat: Male Sprague Dawley rats obtained from Lingchang/Vital River Laboratory Animal Technology Co., Ltd., (Shanghai/Beijing, P.R. China) with body weight ranging between 200 g to 300 g were use in the PK studies. Group of 3 rats were given a 1 mg/kg intravenous bolus (IV) dose of the test article in solution formulation, and another group of 3 rats were given a 2 or 5 mg/kg oral (PO) dose of test article as a 0.5% methylcellulose with 0.2% Tween 80 (MCT) suspension or as a solution. Blood samples (250 μL, per time point) were collected serially via the catheter in femoral artery at 0.033, 0.083, 0.25, 0.5, 1, 2, 4, 6, and 8 hours after IV or PO administration from each of the rat. Blood samples were collected into pre-chilled tubes containing Potassium (K2) EDTA and centrifuged at 3,200 g for 10 minutes at 2 to 8° C. within 1 hour of collection to harvest plasma. Plasma samples were stored at −70° C. until LC/MS/MS analysis. Concentration in each plasma sample was determined by a non-validated LC/MS/MS. Data is acquired using multiple reaction monitoring (MRM) with specific transitions monitored for each compound.
Following PO administration, percent bioavailability (% F) was determined for each animal by dividing the dose normalized area under the plasma concentration-time curve, extrapolated to infinity (AUCinf) obtained following each PO dose by the mean dose normalized AUCinf of the animals dosed by IV injection. All PK parameters are presented as mean±standard deviation (SD).
Pharmacokinetic studies were conducted in rat for exemplary compounds of Formula (I).

[3] = target: HPK full length, T165E S171E (Homo sapiens (Human), UniProt Q92918, S171E/T165E); assay: HPK1-FL HTRF enzymatic assay ("HTRF"); type: biochemical; details: ATP 1 mM, read-out: HPK1 Ki
Sequence of HPK full length, T165E S171E (Q92918 whole entry T165E/S171E, looked up): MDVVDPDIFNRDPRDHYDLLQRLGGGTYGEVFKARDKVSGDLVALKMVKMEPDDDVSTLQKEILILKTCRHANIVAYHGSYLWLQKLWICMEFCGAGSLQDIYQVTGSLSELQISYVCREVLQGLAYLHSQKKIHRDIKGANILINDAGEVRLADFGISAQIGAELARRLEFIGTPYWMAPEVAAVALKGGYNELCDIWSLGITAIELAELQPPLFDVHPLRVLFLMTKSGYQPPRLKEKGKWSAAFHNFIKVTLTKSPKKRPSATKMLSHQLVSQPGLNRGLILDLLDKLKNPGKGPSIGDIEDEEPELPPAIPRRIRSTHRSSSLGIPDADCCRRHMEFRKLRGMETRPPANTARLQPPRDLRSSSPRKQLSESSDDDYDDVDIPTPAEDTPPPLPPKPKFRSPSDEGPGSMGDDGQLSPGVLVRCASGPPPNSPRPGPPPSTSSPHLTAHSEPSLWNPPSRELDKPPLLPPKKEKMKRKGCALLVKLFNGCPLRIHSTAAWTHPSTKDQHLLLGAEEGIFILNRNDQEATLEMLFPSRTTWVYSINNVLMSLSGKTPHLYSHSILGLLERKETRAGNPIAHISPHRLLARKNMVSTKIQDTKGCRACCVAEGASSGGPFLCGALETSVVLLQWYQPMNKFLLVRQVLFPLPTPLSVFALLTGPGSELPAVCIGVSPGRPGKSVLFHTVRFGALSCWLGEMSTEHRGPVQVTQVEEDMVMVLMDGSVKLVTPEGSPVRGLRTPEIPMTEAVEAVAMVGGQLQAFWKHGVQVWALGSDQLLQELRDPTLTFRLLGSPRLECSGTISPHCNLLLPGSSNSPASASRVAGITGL
Outline: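 Full-length HPK1 (T165E/S171E) was preincubated 30 min with compound, then reacted 60 min with biotin-SLP-76 and 1 mM ATP. Phospho-SLP-76 was detected by HTRF (Eu-anti-pSLP76 antibody, SA-XL665) after a further 60 min.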

[4] = test system: Cryopreserved human hepatocytes; assay: Hepatocyte stability assay; type: in vitro ADME; details: 1 μM, scaled hepatic clearance
Method: (§4) Metabolic stability of compounds are assessed using a hepatocyte stability assay. Cryopreserved human hepatocytes from a 10 donor pool are quickly thawed at 37° C., suspended in prewarmed In VitroGRO™ HT Medium, and then centrifuged at 100×g at room temperature for 10 min. The supernatants are discarded, and cells are resuspended in 5 mL Dulbecco's Modified Eagle Medium (DMEM) medium. Cell viability in suspension is counted on a Hepatometer® Vision (Lonza, N.C.), and viable cells are then adjusted to […] in DMEM. Compounds are first diluted to 2 μM with DMEM medium, and then aliquots of 125 μL of drug-containing medium are transferred to 96-well non-coated plates. Incubation is initiated by the addition of 125 μL of hepatocyte suspension to yield a total incubation volume of 250 μL. Final concentration of each compound is 1 μM, and final cell density is 0.5×10^6 cells/mL. Incubations are conducted in a humidified incubator at 37° C. Aliquots of 50 μL incubation medium are taken out at different time intervals (0, 60, 120 and 180 min), and immediately mixed with 100 μL of ice-cold acetonitrile containing 50 nM propranolol (internal standard). Samples are then centrifuged at 10,000×g for 10 min, and 80 μL of supernatant is taken out and diluted with 160 μL of water prior to LC/MS-MS analysis.
(§5) Human hepatocyte stability was assessed for exemplary compounds of Formula (I) according to the above procedures.

[5] = test system: primary human pan T cells; assay: Human T-cell IL2 induction assay; type: cell-based
Method: Assay Principle: Anti-CD3 and anti-CD28 activates TCR signaling in primary human pan T cells leading to IL-2 promoter induction. Secreted IL-2 in cell culture supernatant is detected by electrochemiluminescence using a capture antibody against IL-2 and an anti-IL-2 antibody labeled with SULFO-tag. Also see www.mesoscale.com for additional electrochemiluminescence technology information.
Assay Procedure: Incubate primary human pan T cells with varying concentrations of test compounds for 30 minutes in a humidified incubator at 37° C. and 5% CO2. Transfer cells to a plate pre-coated with a fixed concentration of anti-human CD3 (determined separately for each donor lot) and add soluble anti-human CD28 (final concentration=1 μg/ml). Stimulate cells in a humidified incubator at 37° C. and 5% CO2 for 4 hours. Transfer 25 μl of supernatant to a MSD single spot plate pre-coated with an anti-human IL-2 antibody. Incubate MSD plate overnight at 4° C. with gentle shaking. Wash MSD plate 4× with wash buffer. Add SULFO-tagged detection antibody at a 1:50 dilution and incubate at room temperature shaking for 2 hours. Wash MSD plate 4× with wash buffer and add 150 μl 2×MSD read buffer. Read on an MSD instrument. Normalize data to stimulated/untreated controls to calculate % activity at each concentration of compound.
Instrumentation: • Biomek FX for liquid handling (Beckman Coulter) • MSD SECTOR S 600 (Meso Scale Discovery)
Exemplary compounds of Formula (I) were tested in the human T-cell IL-2 induction assays.

[6] = Permeability assay in gMDCKI cells; type: in vitro ADME, canine; details: dog, MDCK, apical-to-basolateral, 2-hour incubation, read-out: MDCK AB Papp
Method: as §1, §2, §3

[7] = Hepatocyte stability assay; type: in vitro ADME; details: cryopreserved human hepatocytes (10 donor pool, suspension), scaled hepatic clearance, read-out: HHep Clearance
Method: as §4, §5

Row | Compound | IC50 [1] | MDCK AB Papp (gMDCKI cell line) | % F ([2]; PO 2 mg/kg) | Ki [3] | HHep Clearance [4] | % IL-2 increase relative to untreated cells ([5]; assayed concentration 1.196 μM) | IC50 ([1]; Homo sapiens) | Papp at 2 h, 10 μM [6] | bioavailability ([2]; PO 2 mg/kg) | CLhep predicted at 1 μM [7] | % IL-2 increase relative to untreated cells ([5]; assayed concentration 2.778 μM) | bioavailability ([2]; PO 5 mg/kg)
1 | Cc1c(-c2cc3cc(NC(=O)O[C@H]4C[C@H](C(C)(C)O)C4)ncc3c(N)c2F)cnc2c1NCCO2 [Compound 574a, (1r,3r)-3-(2-Hydroxypropan-2-yl)cyclobutyl (8-amino-7-fluoro-6-(8-methyl-2,3-dihydro-1H-pyrido[2,3-b][1,4]oxazin-7-yl)isoquinolin-3-yl)carbamate] | 32 nM | 12 ×10⁻⁶ cm/s | 16% | 0.02 nM | 8.3 mL/min/kg | 1634% |  |  |  |  |  | 
2 | Cc1c(-c2cc3cc(NC(=O)N4CC(C)C4)ncc3c(N)c2F)cnc2c1NCCO2 [Compound 751, N-(8-Amino-7-fluoro-6-(8-methyl-2,3-dihydro-1H-pyrido[2,3-b][1,4]oxazin-7-yl)isoquinolin-3-yl)-3-methylazetidine-1-carboxamide] |  |  |  | 0.044 nM |  |  | 41 nM | 11 ×10⁻⁶ cm/s | 9.4% | < 6.2 mL/min/kg | 1363% | 
3 | Cc1c(-c2cc3cc(NC(=O)N4CC(C)(F)C4)ncc3c(N)c2F)cnc2c1NCCO2 [Compound 755, N-(8-Amino-7-fluoro-6-(8-methyl-2,3-dihydro-1H-pyrido[2,3-b][1,4]oxazin-7-yl)isoquinolin-3-yl)-3-fluoro-3-methylazetidine-1-carboxamide] |  |  |  | 0.09 nM |  |  | 46 nM | 10 ×10⁻⁶ cm/s |  | 6.8 mL/min/kg | 1061% | 4%
